Results from PubChem BioAssay AID2060502 (Molecular Pharmacology Branch, DTP, NCI, 2025).

System: 885724-159-R-J1-PDC complex spheroid viability
Assay: Anticancer human tumor 885724-159-R-J1-PDC patient-derived pancreatic adenocarcinoma cell line growth inhibition [GQUAD]
Settings: for IC50: curve of first compound; for viability, T/C: stronger effect = lower value
Procedure, shortened: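 Viability of tumor cells grown as complex spheroids with endothelial and stromal cells, exposed to drug combinations. Top concentration at or near clinical Cmax (else 10 microM), diluted in half-log increments.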

[1] = second compound 0.0316 µM, first compound 0.000999 µM
[2] = second compound 0.0316 µM, first compound 0.00316 µM
[3] = second compound 0.0316 µM, first compound 0.00999 µM
[4] = second compound 0.0316 µM, first compound 0.0316 µM
[5] = second compound 0.0316 µM, first compound 0.0999 µM
[6] = second compound 0.0316 µM, first compound 0.316 µM
[7] = second compound 0.1 µM, first compound 0.000999 µM
[8] = second compound 0.1 µM, first compound 0.00316 µM
[9] = second compound 0.1 µM, first compound 0.00999 µM
[10] = second compound 0.1 µM, first compound 0.0316 µM
[11] = second compound 0.1 µM, first compound 0.0999 µM
[12] = second compound 0.1 µM, first compound 0.316 µM
[13] = second compound 0.316 µM, first compound 0.000999 µM
[14] = second compound 0.316 µM, first compound 0.00316 µM
[15] = second compound 0.316 µM, first compound 0.00999 µM
[16] = second compound 0.316 µM, first compound 0.0316 µM
[17] = second compound 0.316 µM, first compound 0.0999 µM
[18] = second compound 0.316 µM, first compound 0.316 µM
[19] = second compound 1 µM, first compound 0.000999 µM
[20] = second compound 1 µM, first compound 0.00316 µM
[21] = second compound 1 µM, first compound 0.00999 µM
[22] = second compound 1 µM, first compound 0.0316 µM
[23] = second compound 1 µM, first compound 0.0999 µM
[24] = second compound 1 µM, first compound 0.316 µM
[25] = second compound 3.16 µM, first compound 0.000999 µM
[26] = second compound 3.16 µM, first compound 0.00316 µM
[27] = second compound 3.16 µM, first compound 0.00999 µM
[28] = second compound 3.16 µM, first compound 0.0316 µM
[29] = second compound 3.16 µM, first compound 0.0999 µM
[30] = second compound 3.16 µM, first compound 0.316 µM
[31] = second compound 10 µM, first compound 0.000999 µM
[32] = second compound 10 µM, first compound 0.00316 µM
[33] = second compound 10 µM, first compound 0.00999 µM
[34] = second compound 10 µM, first compound 0.0316 µM
[35] = second compound 10 µM, first compound 0.0999 µM
[36] = second compound 10 µM, first compound 0.316 µM
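Also: spheroids exposed to agents for seven days before readout.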
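For viability, T/C in this document: percent of vehicle control viability where 100% = DMSO wells.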

## Cn1ncnc1[C@H]1c2n[nH]c(=O)c3cc(F)cc(c23)N[C@@H]1c1ccc(F)cc1 + Cc1cnc(CNC(=O)c2c(=O)c3ccc(N4CCCN(C)CC4)nc3n3c2sc2ccccc23)cn1
Second compound 0.0316 µM
  IC50: > 316 nM
Second compound 0.1 µM
  IC50: > 316 nM
Second compound 0.316 µM
  IC50: > 316 nM
Second compound 1 µM
  IC50: > 316 nM
Second compound 3.16 µM
  IC50: > 316 nM
Second compound 10 µM
  IC50: > 316 nM
[1]
  viability, T/C: 90.3%
[2]
  viability, T/C: 107%
[3]
  viability, T/C: 96.3%
[4]
  viability, T/C: 108%
[5]
  viability, T/C: 90.3%
[6]
  viability, T/C: 92.7%
[7]
  viability, T/C: 117%
[8]
  viability, T/C: 115%
[9]
  viability, T/C: 97.1%
[10]
  viability, T/C: 100%
[11]
  viability, T/C: 98.8%
[12]
  viability, T/C: 92.2%
[13]
  viability, T/C: 90.1%
[14]
  viability, T/C: 94.5%
[15]
  viability, T/C: 104%
[16]
  viability, T/C: 96.3%
[17]
  viability, T/C: 96.6%
[18]
  viability, T/C: 98.7%
[19]
  viability, T/C: 86.8%
[20]
  viability, T/C: 85.6%
[21]
  viability, T/C: 82.3%
[22]
  viability, T/C: 79.2%
[23]
  viability, T/C: 87.4%
[24]
  viability, T/C: 84.2%
[25]
  viability, T/C: 79.8%
[26]
  viability, T/C: 76.1%
[27]
  viability, T/C: 78.9%
[28]
  viability, T/C: 76.1%
[29]
  viability, T/C: 81%
[30]
  viability, T/C: 72.6%
[31]
  viability, T/C: 82.4%
[32]
  viability, T/C: 88.2%
[33]
  viability, T/C: 83%
[34]
  viability, T/C: 89.4%
[35]
  viability, T/C: 105%
[36]
  viability, T/C: 94.6%

## CC[C@@]1(O)C(=O)OCc2c1cc1n(c2=O)Cc2cc3c(CN(C)C)c(O)ccc3nc2-1 + Cc1cnc(CNC(=O)c2c(=O)c3ccc(N4CCCN(C)CC4)nc3n3c2sc2ccccc23)cn1
Second compound 0.0316 µM
  IC50: > 316 nM
Second compound 0.1 µM
  IC50: > 316 nM
Second compound 0.316 µM
  IC50: > 316 nM
Second compound 1 µM
  IC50: > 316 nM
Second compound 3.16 µM
  IC50: > 316 nM
Second compound 10 µM
  IC50: > 316 nM
[1]
  viability, T/C: 117%
[2]
  viability, T/C: 95.5%
[3]
  viability, T/C: 103%
[4]
  viability, T/C: 106%
[5]
  viability, T/C: 89.1%
[6]
  viability, T/C: 65.5%
[7]
  viability, T/C: 125%
[8]
  viability, T/C: 98.7%
[9]
  viability, T/C: 101%
[10]
  viability, T/C: 103%
[11]
  viability, T/C: 85.5%
[12]
  viability, T/C: 75.2%
[13]
  viability, T/C: 96.1%
[14]
  viability, T/C: 104%
[15]
  viability, T/C: 87.6%
[16]
  viability, T/C: 95%
[17]
  viability, T/C: 100%
[18]
  viability, T/C: 70.1%
[19]
  viability, T/C: 88.6%
[20]
  viability, T/C: 84.1%
[21]
  viability, T/C: 95.2%
[22]
  viability, T/C: 80.3%
[23]
  viability, T/C: 87.8%
[24]
  viability, T/C: 70.3%
[25]
  viability, T/C: 74.8%
[26]
  viability, T/C: 69.5%
[27]
  viability, T/C: 75%
[28]
  viability, T/C: 75.9%
[29]
  viability, T/C: 73.9%
[30]
  viability, T/C: 64.5%
[31]
  viability, T/C: 70.7%
[32]
  viability, T/C: 81.1%
[33]
  viability, T/C: 72.7%
[34]
  viability, T/C: 74.2%
[35]
  viability, T/C: 80%
[36]
  viability, T/C: 69.1%

## CC[C@@]1(O)C(=O)OCc2c1cc1n(c2=O)Cc2cc3c(CN(C)C)c(O)ccc3nc2-1 + CN(C)c1ccc(Nc2c3ccc(NC(=O)CCN4CCCC4)cc3nc3cc(NC(=O)CCN4CCCC4)ccc23)cc1
Second compound 0.0316 µM
  IC50: > 316 nM
Second compound 0.1 µM
  IC50: > 316 nM
Second compound 0.316 µM
  IC50: > 316 nM
Second compound 1 µM
  IC50: > 316 nM
Second compound 3.16 µM
  IC50: > 316 nM
Second compound 10 µM
  IC50: > 316 nM
[1]
  viability, T/C: 100%
[2]
  viability, T/C: 93.2%
[3]
  viability, T/C: 97.2%
[4]
  viability, T/C: 93.6%
[5]
  viability, T/C: 76.7%
[6]
  viability, T/C: 67.7%
[7]
  viability, T/C: 95.9%
[8]
  viability, T/C: 98.6%
[9]
  viability, T/C: 100%
[10]
  viability, T/C: 84.2%
[11]
  viability, T/C: 78%
[12]
  viability, T/C: 67.2%
[13]
  viability, T/C: 78.5%
[14]
  viability, T/C: 86.1%
[15]
  viability, T/C: 83.2%
[16]
  viability, T/C: 82.1%
[17]
  viability, T/C: 89.6%
[18]
  viability, T/C: 63.9%
[19]
  viability, T/C: 76.4%
[20]
  viability, T/C: 82.3%
[21]
  viability, T/C: 76.9%
[22]
  viability, T/C: 65.4%
[23]
  viability, T/C: 87.2%
[24]
  viability, T/C: 62.4%
[25]
  viability, T/C: 81.3%
[26]
  viability, T/C: 70.5%
[27]
  viability, T/C: 74.8%
[28]
  viability, T/C: 66.3%
[29]
  viability, T/C: 67.9%
[30]
  viability, T/C: 51.6%
[31]
  viability, T/C: 89.7%
[32]
  viability, T/C: 87.5%
[33]
  viability, T/C: 77.3%
[34]
  viability, T/C: 79.8%
[35]
  viability, T/C: 73.7%
[36]
  viability, T/C: 52.4%

## C=CCn1c(=O)c2cnc(Nc3ccc(N4CCN(C)CC4)cc3)nc2n1-c1cccc(C(C)(C)O)n1 + CN(C)c1ccc(Nc2c3ccc(NC(=O)CCN4CCCC4)cc3nc3cc(NC(=O)CCN4CCCC4)ccc23)cc1
Second compound 0.0316 µM
  IC50: > 10000 nM
Second compound 0.1 µM
  IC50: > 10000 nM
Second compound 0.316 µM
  IC50: > 10000 nM
Second compound 1 µM
  IC50: 3830 nM
Second compound 3.16 µM
  IC50: 714 nM
Second compound 10 µM
  IC50: 1340 nM
[4]
  viability, T/C: 99%
Second compound 0.0316 µM, first compound 0.1 µM
  viability, T/C: 86.2%
[6]
  viability, T/C: 74.4%
Second compound 0.0316 µM, first compound 1 µM
  viability, T/C: 81.6%
Second compound 0.0316 µM, first compound 3.16 µM
  viability, T/C: 72.4%
Second compound 0.0316 µM, first compound 10 µM
  viability, T/C: 73%
[10]
  viability, T/C: 95.4%
Second compound 0.1 µM, first compound 0.1 µM
  viability, T/C: 83.6%
[12]
  viability, T/C: 79.3%
Second compound 0.1 µM, first compound 1 µM
  viability, T/C: 73.7%
Second compound 0.1 µM, first compound 3.16 µM
  viability, T/C: 71.3%
Second compound 0.1 µM, first compound 10 µM
  viability, T/C: 72.5%
[16]
  viability, T/C: 92%
Second compound 0.316 µM, first compound 0.1 µM
  viability, T/C: 81.8%
[18]
  viability, T/C: 69.5%
Second compound 0.316 µM, first compound 1 µM
  viability, T/C: 63.4%
Second compound 0.316 µM, first compound 3.16 µM
  viability, T/C: 57.7%
Second compound 0.316 µM, first compound 10 µM
  viability, T/C: 52.3%
[22]
  viability, T/C: 83.5%
Second compound 1 µM, first compound 0.1 µM
  viability, T/C: 66.7%
[24]
  viability, T/C: 60.4%
Second compound 1 µM, first compound 1 µM
  viability, T/C: 44.1%
Second compound 1 µM, first compound 3.16 µM
  viability, T/C: 57.2%
Second compound 1 µM, first compound 10 µM
  viability, T/C: 47.3%
[28]
  viability, T/C: 82.6%
Second compound 3.16 µM, first compound 0.1 µM
  viability, T/C: 60.7%
[30]
  viability, T/C: 61.2%
Second compound 3.16 µM, first compound 1 µM
  viability, T/C: 40.7%
Second compound 3.16 µM, first compound 3.16 µM
  viability, T/C: 52.1%
Second compound 3.16 µM, first compound 10 µM
  viability, T/C: 38.7%
[34]
  viability, T/C: 68.3%
Second compound 10 µM, first compound 0.1 µM
  viability, T/C: 69.5%
[36]
  viability, T/C: 56.7%
Second compound 10 µM, first compound 1 µM
  viability, T/C: 50.4%
Second compound 10 µM, first compound 3.16 µM
  viability, T/C: 45.7%
Second compound 10 µM, first compound 10 µM
  viability, T/C: 19.6%
